Experimental data: US8530183B2, “Zinc sensors for cellular imaging” (The Board of Regents of the University of Texas System, priority 2010, dated 2013)

Key:
pancreatic islets = assay: Confocal imaging of dye uptake and insulin/Zn2+ release in pancreatic islets; assay type: cell-based, mouse
Experimental: FIGS. 8A-C. Imaging insulin/Zn^2+ release in islets by confocal laser scanning microscopy. (FIGS. 8A-B) Confocal images of mouse islets labeled with ZIMIR (FIG. 8A) or calcein/AM (FIG. 8B). (FIG. 8C) Confocal ZIMIR imaging of insulin/Zn^2+ release in a mouse islet bathed in SAB. Images from two example layers 15 μm apart before and 10 sec post KCl (40 mM) stimulation were shown.
FIG. 11. ZIMIR rapidly labels cells of intact human islets. Representative CLSM images of a ZIMIR labeled human islet at three focal planes 20 μm apart.
Islets labeling and ZIMIR imaging by confocal laser scanning microscopy. Experiments with rodent animals were carried out according to protocols approved by the Institutional Animal Care and Use Committee of University of Texas Southwestern Medical Center. Rodent islets were isolated from Sprague-Dawley rats or C57BL/6 mice after digesting exocrine tissues of pancreas using collagenase as described below. To image insulin release in islets, the inventors labeled islets with ZIMIR (final concentration 2 μM with 0.025% Pluronic) in SAB buffer for […]. Labeled islets were then transferred to an imaging dish that had been coated with 0.5% PuraMatrix peptide hydrogel (BD Biosciences, Cat # 354250). Islets adhered to the PuraMatrix hydrogel within 5 min. They then imaged ZIMIR fluorescence by confocal laser scanning microscopy using a LSM510 imaging system (Carl Zeiss) and a 40× oil immersion objective (Dakin and Li, 2007).
Confocal imaging of ZIMIR uptake and insulin/Zn^2+ release in pancreatic islets. In addition to cultured cells, ZIMIR also rapidly and noninvasively labels cells in preparations such as dissected pancreatic islets. After loading islets with ZIMIR (2 μM) for 25 min, the inventors applied CLSM to track the distribution of ZIMIR in three dimensions (3D). […] The result confirmed that ZIMIR readily diffused through the interstitial space to reach interior cells, whereas calcein/AM was trapped by cells in the outer layer, unable to penetrate any deeper. After labeling, the inventors depolarized cells with high concentration of KCl.

MIN6 cells = assay: Cellular uptake and membrane labeling followed by confocal laser scanning microscopy; assay type: cell-based, mouse
Experimental: FIGS. 4A-F. ZIMIR labels plasma membranes of intact living cells rapidly, non-invasively and stably. ZIMIR (1 μM) was added to MIN6 cells in FIBS buffer (containing ˜1 μM Zn^2+ enhance fluorescence intensity). Confocal images (Ex 488 nm, Em 510-550 nm) were subsequently acquired at 2 min (FIG. 4A), 5 min (FIG. 4B), 10 min (FIG. 4C), and 20 min (FIG. 4D). Cells were then washed with FIBS buffer three times and imaged again at 21 min (FIG. 4E), and 140 min (FIG. 4F).
Cell culture and ZIMIR imaging by wide field fluorescence microscopy. Details of cell culture are described below. For cell imaging, we cultured cells in 35 mm petri dishes with glass-bottoms (MatTek, Ashland, Mass.). To label cells with ZIMIR, cells were washed with a Secretion Assay Buffer (SAB) containing 114 mM NaCl, 4.7 mM KCl, 1.2 mM KH2PO4, 2.5 mM CaCl2, 1.16 mM MgSO4, 3 mM glucose, and 20 mM HEPES (pH 7.4). The DMSO stock solution of ZIMIR. (1-2 mM) diluted in a small volume of SAB was added to cells to a final concentration of 1 μM. Cells were then incubated at ˜25° C. for 20 min and washed with SAB before imaging. To image insulin/Zn^2+ secretion, we routinely included 10 μM of EDTA in SAB to chelate the residual Zn^2+ and to reduce the baseline fluorescence. In addition, DPAS (2-4 μM) was added to SAB in some experiments to better resolve the dynamics of oscillatory insulin release.
ZIMIR uptake and Zn2+ response in live cells. To examine the cellular uptake of ZIMIR, the inventors used a mouse insulinoma cell line, MIN6 (Miyazaki et al., 1990). When ZIMIR was incubated with cells at 1 μM concentration, it rapidly adhered to the cell surface of intact living cells (data not shown). In order to test the specificity and stability of membrane labeling, the inventors used confocal laser scanning microscopy (CLSM) to follow the cellular uptake and distribution of ZIMIR in MIN6 cells (FIGS. 4A-F). Within 5 min after probe addition, there was already a clear accumulation of ZIMIR along the plasma membrane (FIGS. 4A-B). By 20 min, the cellular uptake of ZIMIR appeared to reach completion (FIGS. 4C-D). […]

CCCCCCCCCCCCN(CC(=O)O)Cc1c2oc3c(CN(CCCCCCCCCCCC)CC(=O)O)c(O)ccc3c(-c3cc(NCCN(CCc4ccccn4)Cc4ccccn4)ccc3C(=O)O)c-2ccc1=O [ZIMIR]
distribution of dye in islets (3D, CLSM) (pancreatic islets; ZIMIR 2 μM for 25 min, mouse and human islets): taken up by cells throughout the islets, from the mantle to the core | ZIMIR fluorescence change in islets upon KCl depolarization (pancreatic islets; mouse islet, high concentration of KCl (40 mM)): robust and synchronized enhancement of ZIMIR fluorescence | time to clear accumulation along the plasma membrane (MIN6 cells; 1 μM ZIMIR, MIN6 cells, CLSM): ≤ 5 min | time to completion of cellular uptake (MIN6 cells; 1 μM ZIMIR, MIN6 cells, CLSM): ≤ 20 min | membrane retention upon washing (MIN6 cells; repetitive washings after labeling): did not change membrane fluorescence intensity
